Results on five molecules are retold here after PubChem BioAssay AID1259407 (Chemical Carcinogenesis Research Information System (CCRIS), 2018).

This data set deals with CCRIS mutagenicity, Ames/micronucleus/aberration tests. Kind of data set: CCRIS mutagenicity studies.
[1] abbreviates: Test System: AMES SALMONELLA TYPHIMURIUM, Strain/Indicator: TA98, Metabolic Activation: NONE, Method: PREINCUBATION
Where [2] appears, read: Test System: AMES SALMONELLA TYPHIMURIUM, Strain/Indicator: TA98, Metabolic Activation: RAT, LIVER, S-9, AROCLOR 1254, Method: PREINCUBATION
[3] abbreviates: Test System: AMES SALMONELLA TYPHIMURIUM, Strain/Indicator: TA100, Metabolic Activation: NONE, Method: PREINCUBATION
Setting [4] is: Test System: AMES SALMONELLA TYPHIMURIUM, Strain/Indicator: TA100, Metabolic Activation: RAT, LIVER, S-9, AROCLOR 1254, Method: PREINCUBATION

The source made the active and inactive calls. How the calls were made is not given here.

As for `OC[P+](CO)(CO)CO`, the mutagenic call is “active; positive” (End Point: IN VITRO CHROMOSOMAL ABERRATIONS, Test System: CHO CELLS, Metabolic Activation: NONE); “inactive; negative” (Test System: AMES SALMONELLA TYPHIMURIUM, Strain/Indicator: TA97, Metabolic Activation: HAMSTER, LIVER, S-9, AROCLOR 1254 (10%), Method: PREINCUBATION); “inactive; negative” (Test System: AMES SALMONELLA TYPHIMURIUM, Strain/Indicator: TA97, Metabolic Activation: HAMSTER, LIVER, S-9, AROCLOR 1254 (30%), Method: PREINCUBATION); “inactive; negative” (Test System: AMES SALMONELLA TYPHIMURIUM, Strain/Indicator: TA97, Metabolic Activation: NONE, Method: PREINCUBATION); “inactive; negative” (Test System: AMES SALMONELLA TYPHIMURIUM, Strain/Indicator: TA97, Metabolic Activation: RAT, LIVER, S-9, AROCLOR 1254 (10%), Method: PREINCUBATION); “inactive; negative” (Test System: AMES SALMONELLA TYPHIMURIUM, Strain/Indicator: TA97, Metabolic Activation: RAT, LIVER, S-9, AROCLOR 1254 (30%), Method: PREINCUBATION). Moreover, the mutagenic call (Test System: AMES SALMONELLA TYPHIMURIUM, Strain/Indicator: TA98, Metabolic Activation: HAMSTER, LIVER, S-9, AROCLOR 1254 (10%), Method: PREINCUBATION) is “inactive; negative”; the mutagenic call (Test System: AMES SALMONELLA TYPHIMURIUM, Strain/Indicator: TA98, Metabolic Activation: HAMSTER, LIVER, S-9, AROCLOR 1254 (30%), Method: PREINCUBATION) is “inactive; negative”; the mutagenic call (Test System: AMES SALMONELLA TYPHIMURIUM, Strain/Indicator: TA98, Metabolic Activation: HAMSTER, LIVER, S-9, AROCLOR 1254, Method: PREINCUBATION) was “inactive; negative”; the mutagenic call under setting [1] is “inactive; negative”; the mutagenic call (Test System: AMES SALMONELLA TYPHIMURIUM, Strain/Indicator: TA98, Metabolic Activation: RAT, LIVER, S-9, AROCLOR 1254 (10%), Method: PREINCUBATION) was “inactive; negative”; the mutagenic call (Test System: AMES SALMONELLA TYPHIMURIUM, Strain/Indicator: TA98, Metabolic Activation: RAT, LIVER, S-9, AROCLOR 1254 (30%), Method: PREINCUBATION) was “inactive; negative”. Further, the mutagenic call under setting [2] was “inactive; negative”; the mutagenic call (Test System: AMES SALMONELLA TYPHIMURIUM, Strain/Indicator: TA100, Metabolic Activation: HAMSTER, LIVER, S-9, AROCLOR 1254 (10%), Method: PREINCUBATION) was “inactive; negative”; the mutagenic call (Test System: AMES SALMONELLA TYPHIMURIUM, Strain/Indicator: TA100, Metabolic Activation: HAMSTER, LIVER, S-9, AROCLOR 1254 (30%), Method: PREINCUBATION) was “inactive; negative”; the mutagenic call (Test System: AMES SALMONELLA TYPHIMURIUM, Strain/Indicator: TA100, Metabolic Activation: HAMSTER, LIVER, S-9, AROCLOR 1254, Method: PREINCUBATION) is “inactive; negative”; the mutagenic call under setting [3] is “inactive; negative”; the mutagenic call (Test System: AMES SALMONELLA TYPHIMURIUM, Strain/Indicator: TA100, Metabolic Activation: RAT, LIVER, S-9, AROCLOR 1254 (10%), Method: PREINCUBATION) is “inactive; negative”. Further, the mutagenic call was “inactive; negative” (Test System: AMES SALMONELLA TYPHIMURIUM, Strain/Indicator: TA100, Metabolic Activation: RAT, LIVER, S-9, AROCLOR 1254 (30%), Method: PREINCUBATION); “inactive; negative” under setting [4]; “inactive; negative” (Test System: AMES SALMONELLA TYPHIMURIUM, Strain/Indicator: TA1535, Metabolic Activation: HAMSTER, LIVER, S-9, AROCLOR 1254 (10%), Method: PREINCUBATION); “inactive; negative” (Test System: AMES SALMONELLA TYPHIMURIUM, Strain/Indicator: TA1535, Metabolic Activation: HAMSTER, LIVER, S-9, AROCLOR 1254 (30%), Method: PREINCUBATION); “inactive; negative” (Test System: AMES SALMONELLA TYPHIMURIUM, Strain/Indicator: TA1535, Metabolic Activation: HAMSTER, LIVER, S-9, AROCLOR 1254, Method: PREINCUBATION); “inactive; negative” (Test System: AMES SALMONELLA TYPHIMURIUM, Strain/Indicator: TA1535, Metabolic Activation: NONE, Method: PREINCUBATION). Moreover, the mutagenic call was “inactive; negative” (Test System: AMES SALMONELLA TYPHIMURIUM, Strain/Indicator: TA1535, Metabolic Activation: RAT, LIVER, S-9, AROCLOR 1254 (10%), Method: PREINCUBATION); “inactive; negative” (Test System: AMES SALMONELLA TYPHIMURIUM, Strain/Indicator: TA1535, Metabolic Activation: RAT, LIVER, S-9, AROCLOR 1254 (30%), Method: PREINCUBATION); “inactive; negative” (Test System: AMES SALMONELLA TYPHIMURIUM, Strain/Indicator: TA1535, Metabolic Activation: RAT, LIVER, S-9, AROCLOR 1254, Method: PREINCUBATION); “inactive; negative” (Test System: AMES SALMONELLA TYPHIMURIUM, Strain/Indicator: TA1537, Metabolic Activation: HAMSTER, LIVER, S-9, AROCLOR 1254 (10%), Method: PREINCUBATION); “inactive; negative” (Test System: AMES SALMONELLA TYPHIMURIUM, Strain/Indicator: TA1537, Metabolic Activation: HAMSTER, LIVER, S-9, AROCLOR 1254 (30%), Method: PREINCUBATION); “inactive; negative” (Test System: AMES SALMONELLA TYPHIMURIUM, Strain/Indicator: TA1537, Metabolic Activation: HAMSTER, LIVER, S-9, AROCLOR 1254, Method: PREINCUBATION). Further, the mutagenic call (Test System: AMES SALMONELLA TYPHIMURIUM, Strain/Indicator: TA1537, Metabolic Activation: NONE, Method: PREINCUBATION) is “inactive; negative”; the mutagenic call (Test System: AMES SALMONELLA TYPHIMURIUM, Strain/Indicator: TA1537, Metabolic Activation: RAT, LIVER, S-9, AROCLOR 1254 (10%), Method: PREINCUBATION) is “inactive; negative”; the mutagenic call (Test System: AMES SALMONELLA TYPHIMURIUM, Strain/Indicator: TA1537, Metabolic Activation: RAT, LIVER, S-9, AROCLOR 1254 (30%), Method: PREINCUBATION) is “inactive; negative”; the mutagenic call (Test System: AMES SALMONELLA TYPHIMURIUM, Strain/Indicator: TA1537, Metabolic Activation: RAT, LIVER, S-9, AROCLOR 1254, Method: PREINCUBATION) is “inactive; negative”; the mutagenic call (Test System: MOUSE LYMPHOMA, Strain/Indicator: L5178Y (TK+/TK-), Metabolic Activation: NONE, Method: SUSPENSION/PLATE) was “active; positive”.
In the case of `c1ccc2c(c1)[nH]c1cnccc12`, the mutagenic call under setting [2] was “inactive; negative”.
Turning to `OC[C@H](O)CCl`, the mutagenic call is “inactive; negative” under setting [1]; “inactive; negative” (Test System: AMES SALMONELLA TYPHIMURIUM, Strain/Indicator: TA98, Metabolic Activation: RAT, LIVER, S-9, KANECHLOR 500, Method: PREINCUBATION); “active; positive” under setting [3]; “inactive; negative” (Test System: AMES SALMONELLA TYPHIMURIUM, Strain/Indicator: TA100, Metabolic Activation: RAT, LIVER, S-9, KANECHLOR 500, Method: PREINCUBATION); “active; positive” (Test System: AMES SALMONELLA TYPHIMURIUM, Strain/Indicator: TA100, Metabolic Activation: RAT, LIVER, S-9, PCB, Method: PREINCUBATION).
For `Cc1nccnc1C`, the mutagenic call is “inactive; negative” under setting [1]; “inactive; negative” under setting [2]; “inactive; negative” under setting [3]; “inactive; negative” under setting [4]; “inactive; negative” (Test System: AMES SALMONELLA TYPHIMURIUM, Strain/Indicator: TA102, Metabolic Activation: NONE, Method: PREINCUBATION); “inactive; negative” (Test System: AMES SALMONELLA TYPHIMURIUM, Strain/Indicator: TA102, Metabolic Activation: RAT, LIVER, S-9, AROCLOR 1254, Method: PREINCUBATION).
Take `O=c1nc(NO)ccn1[C@@H]1O[C@H](CO)[C@@H](O)[C@H]1O`: the mutagenic call is “active; positive” (Test System: E. COLI, Strain/Indicator: WP2, Metabolic Activation: NONE, Method: STANDARD PLATE) and “active; positive” (Test System: E. COLI, Strain/Indicator: WP2 UVRA, Metabolic Activation: NONE, Method: STANDARD PLATE).
